Experimental data from patent US20260284208A1, “SYSTEM” (Oxford University Innovation Limited, priority 2023, published 2026).

Experiments:
Assay type in all cases: cell-based
[1] = molecular target: endogenous IKZF3 in Jurkat cells (Homo sapiens, UniProt Q96SW2+Q9UKT9); test: Immunoblotting of endogenous IKZF3; conditions: for endogenous IKZF3 level relative to DMSO control (Western blot): 1 μM or 10 μM, untransduced Jurkat cells; for ability to degrade endogenous IKZF3 (Western blot): even at 10 uM
Experimental: Jurkat cells were added to T25 flasks (Falcon) at 2×10^6 cells per flask and were incubated with compounds for 18 hours at 37° C. and 5% CO2. Cells were lysed in buffer containing 9 M urea (Sigma), 75 mM Tris-HCl (Sigma), 0.15 M β-mercaptoethanol (Merck) and 10× diluted protease inhibitor cocktail (Merck). Cells lysates were sonicated for 10 seconds 3 times, centrifuged at 13000 rpm for 10 minutes at 4° C. and the supernatants were transferred into fresh tubes. Protein concentrations were measured using a Pierce BCA Protein Assay Kit (Thermo). Proteins were boiled in Laemmli sample buffer (Bio-Rad) for 5 minutes at 100° C. and separated by SDS-PAGE (7.5% Mini-PROTEAN TGX gels, Bio-Rad) and compared to the PageRuler Prestained Protein Ladder (Thermo). Semi-dry blotting was done on a Trans-Blot Turbo Transfer System (Bio-Rad) with the Trans-Blot Turbo RTA Mini 0.2 μm PVDF Transfer Kit (Bio-Rad) using the default mixed molecular weight mode. Membranes were blocked in 5% non-fat dry milk (Bio Rad) in TBS-T. Primary IKZF3 (D1C1E, Cell Signaling Technology Europe), eGFP (F56-6A1.2.3, Thermo) and vinculin (E1E9V, Cell Signaling Technology Europe and sc-25336, Santa Cruz Biotechnologies) antibodies were diluted 1000×, 500× and 50× respectively in 5% non-fat dry milk in TBS-T. Membranes were incubated with primary antibodies overnight at 4° C., washed with TBS-T 3 times, incubated with HRP conjugated secondary antibodies (Promega) for 1 hour at room temperature, washed with TBS-T 3 times and imaged with Clarity Western ECL substrate (Bio-Rad). Membranes were scanned with a Bio-Rad ChemiDoc XRS+ Imaging System (Bio-Rad) and signal intensities were quantified using Image Lab software (Bio Rad). Band densitometry was assessed, normalized to vinculin bands, and reported as percentage of the DMSO control lane.

[2] = molecular target: wild-type IKZF1/IKZF3 ZF degron sequence (WT) fused to eGFP (Homo sapiens, UniProt Q96SW2+Q9UKT9); test: GFP degradation flow cytometry assay (GFP:mCherry ratio), WT ZF-eGFP; conditions: for percent degradation of WT ZF-GFP at 10 µM: 18 h, Jurkat, flow cytometry concentration curve; for degradation ability against the WT ZF sequence: flow cytometry assay
Experimental: FIG. 2. A. A plasmid containing a ZF degron fused to GFP in the same gene as mCherry. Jurkats that have been lentivirally transduced with this plasmid will express ZF-GFP and mCherry at a consistent ratio. B Addition of an IMID such as pomalidomide will induce GFP degradation via the degron's functionality. C Incubation with an IMID produces a degradation curve.
(§1) Jurkat cells were added to 96 well U-bottom assay plates (Falcon) at 1×10^5 cells per well and treated with compounds for 18 hours at 37° C. and 5% CO2. Cells were stained with 1 μg/mL DAPI (ThermoFisher) and acquired on a Cytoflex S (Beckman Coulter). Data was analysed using FlowJo 10.8.1 (BD).
To test these compounds, we used a flow cytometry assay (FIG. 2) employing an Jurkat cells—an immortalised human blood cell line—that had been stably transduced with a plasmid using a lentiviral vector. This plasmid contained a gene for a 60 amino acid ZF region derived from IKZF3 fused to eGFP, separated from mCherry by an internal ribosomal entry site (IRES). This meant that these cells would express ZF-GFP and mCherry in consistent relative amounts, so under normal conditions the ratio of GFP:mCherry would remain the same regardless of overall expression levels. However, upon incubation with an IMID, ZF-GFP would be selectively degraded, altering this ratio and thus providing an easily measurable proxy for level of ZF degradation.
We carried out three biological replicates of this assay for each IMID analogue with a 0.1% DMSO control and six concentrations of IMID (1 nM, 10 nM, 100 nM, 1 μM, 10 μM and 100 μM) for each compound. This yielded a degradation curve for each compound, from which a pDC50 value could be derived, indicating how potent a degrader each of our compound were relative to thalidomide, lenalidomide and pomalidomide.

[3] = molecular target: Q147A mutated ZF (ANQS) fused to eGFP (Homo sapiens, UniProt Q96SW2+Q9UKT9, Q147A); test: GFP degradation flow cytometry assay, Q147A mutant ZF-eGFP; conditions: for orthogonality index value (from pDC50 Q147A and pDC50 WT): Q147A vs WT ZF, compounds with Q147A Dmax >=0.4 dismissed, 1080 min; for degradation against Q147A relative to WT: flow cytometry, pDC50 comparison
Experimental: as §1
To probe the potential for orthogonality in a bump-and-hole context, the same assay was carried out again on all compounds, but this time with a Q147A mutated ZF.
The pDC50 values derived from this screen were used along with the pDC50 values from the WT screen to assign an orthogonality index value to every compound according the following equation: […]

wild-type IKZF1/IKZF3 ZF degron sequence (WT) fused to eGFP, sequence (Q9UKT9 130-189): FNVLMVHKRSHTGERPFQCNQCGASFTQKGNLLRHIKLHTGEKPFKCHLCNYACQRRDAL
wild-type IKZF1/IKZF3 ZF degron sequence (WT) fused to eGFP, sequence (Q96SW2 whole entry, the tested form may be a part): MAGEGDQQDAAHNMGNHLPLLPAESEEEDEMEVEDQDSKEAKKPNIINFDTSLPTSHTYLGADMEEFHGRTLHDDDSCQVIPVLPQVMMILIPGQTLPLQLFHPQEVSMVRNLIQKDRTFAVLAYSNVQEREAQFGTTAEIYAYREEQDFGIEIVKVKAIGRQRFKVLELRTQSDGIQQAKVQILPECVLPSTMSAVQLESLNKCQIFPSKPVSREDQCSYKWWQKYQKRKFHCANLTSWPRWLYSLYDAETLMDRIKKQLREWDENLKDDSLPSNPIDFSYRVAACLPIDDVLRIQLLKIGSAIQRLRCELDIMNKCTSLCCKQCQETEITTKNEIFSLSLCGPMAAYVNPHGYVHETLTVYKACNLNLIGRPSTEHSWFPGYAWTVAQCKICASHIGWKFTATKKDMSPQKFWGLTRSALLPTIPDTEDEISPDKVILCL
Q147A mutated ZF (ANQS) fused to eGFP, sequence (Q9UKT9 130-189 Q147A): as the sequence (Q9UKT9 130-189) above, with Q18A counted along it
Q147A mutated ZF (ANQS) fused to eGFP, sequence (Q96SW2 whole entry, the tested form may be a part): as the sequence (Q96SW2 whole entry, the tested form may be a part) above
endogenous IKZF3 in Jurkat cells, sequence (Q9UKT9 whole entry): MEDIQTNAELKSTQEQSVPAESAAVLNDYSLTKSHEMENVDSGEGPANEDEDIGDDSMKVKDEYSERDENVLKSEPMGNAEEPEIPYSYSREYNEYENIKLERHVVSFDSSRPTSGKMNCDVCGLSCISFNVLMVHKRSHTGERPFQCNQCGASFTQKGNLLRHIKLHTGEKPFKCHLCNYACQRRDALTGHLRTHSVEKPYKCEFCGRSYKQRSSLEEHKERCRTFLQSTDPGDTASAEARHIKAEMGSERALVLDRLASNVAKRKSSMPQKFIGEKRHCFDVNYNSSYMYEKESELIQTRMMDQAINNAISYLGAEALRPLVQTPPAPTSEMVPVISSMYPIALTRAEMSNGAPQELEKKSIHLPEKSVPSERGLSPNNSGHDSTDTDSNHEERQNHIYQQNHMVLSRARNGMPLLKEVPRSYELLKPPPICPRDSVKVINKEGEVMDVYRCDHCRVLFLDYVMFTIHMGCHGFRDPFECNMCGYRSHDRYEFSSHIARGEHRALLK
endogenous IKZF3 in Jurkat cells, sequence (Q96SW2 whole entry): as the sequence (Q96SW2 whole entry, the tested form may be a part) above

Row | Structure (SMILES) | endogenous IKZF3 level relative to DMSO control (Western blot) [1] | level of endogenous IKZF3 (Western blot) ([1]; 10 μM, Jurkats transduced with AEVK-GFP) | ability to degrade endogenous IKZF3 (Western blot) [1] | percent degradation of WT ZF-GFP at 10 µM [2] [%] | degradation ability against the WT ZF sequence [2] | orthogonality index value (from pDC50 Q147A and pDC50 WT) [3] | degradation against Q147A relative to WT [3]
1 | CC(C)(C)c1ccc2c(c1)C(=O)N(C1CCC(=O)NC1=O)C2=O (stereo not shown) [A63, 5-(tert-butyl)-2-(2,6-dioxopiperidin-3-yl)isoindoline-1,3-dione] | unaffected | remains unaffected | neither A63 nor B08 possess ability to degrade endogenous IKZF3 | 60 to 70 | some degradation ability | > 10 | improved degradation
2 | CN1CCN(c2ccc3c(c2)C(=O)N(C2CCC(=O)NC2=O)C3=O)CC1 (stereo not shown) [B08, 2-(2,6-dioxopiperidin-3-yl)-5-(4-methylpiperazin-1-yl)isoindoline-1,3-dione] | unaffected | – | neither A63 nor B08 possess ability to degrade endogenous IKZF3 | 60 to 70 | some degradation ability | > 10 | improved degradation
